Measurements from patent US20230183219A1, “CONDENSED SUBSTITUTED HYDROPYRROLES AS ANTAGONISTS OF THE MUSCARINIC ACETYLCHOLINE RECEPTOR M4” (Vanderbilt University, priority 2020, published 2023).

Target: T1, Human M4 (Homo sapiens, UniProt P08173)
T1 construct: Human or rat M4 cDNA, along with the chimeric G protein Gqi5, were transfected into Chinese hamster ovary (CHO-K1) cells; expressed in transfected cells; host or cells: CHO-K1 (Chinese hamster ovary, ATCC), stably co-expressing Gqi5
T1 sequence (P08173 1-479): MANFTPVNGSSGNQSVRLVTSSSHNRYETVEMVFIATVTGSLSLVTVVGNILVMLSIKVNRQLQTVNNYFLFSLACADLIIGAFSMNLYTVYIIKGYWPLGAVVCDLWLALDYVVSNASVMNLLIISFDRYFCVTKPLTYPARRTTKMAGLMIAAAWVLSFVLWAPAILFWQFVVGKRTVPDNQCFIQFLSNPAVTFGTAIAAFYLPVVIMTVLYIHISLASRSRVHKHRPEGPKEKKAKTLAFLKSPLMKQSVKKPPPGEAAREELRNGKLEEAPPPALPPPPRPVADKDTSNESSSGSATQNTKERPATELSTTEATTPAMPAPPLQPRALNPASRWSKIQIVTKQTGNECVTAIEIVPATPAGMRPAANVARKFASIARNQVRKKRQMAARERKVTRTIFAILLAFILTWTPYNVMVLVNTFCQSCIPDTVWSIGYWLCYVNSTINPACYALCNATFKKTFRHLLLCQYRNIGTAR
Test: mAChR M4 cell-based functional assay (calcium flux, decrease of EC80 acetylcholine response)
Conditions: for remaining activity at 30 µM: % ACh maximum at 30 μM, read-out: Human M4 Emin; for IC50: M4/Gqi5/CHO-K1 cells, decrease of response to EC80 acetylcholine
Summary of the method: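 IC50 reflects inhibition of an EC80 acetylcholine calcium response, fitted by four-parameter logistic equation. Fluo-4-loaded M4/Gqi5 CHO-K1 cells received compound (10-point, 1:3 series) 2 s into the FDSS read, then EC20 acetylcholine at 143 s and EC80 at 268 s.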

| SMILES | remaining activity at 30 µM [%] | IC50 [nM] |
| --- | --- | --- |
| COc1ccccc1-c1cc(C(F)(F)F)c(N[C@H]2C[C@@H]3CN(CC4CCOCC4)C[C@@H]3C2)nn1 [Example 64, (3aR,5s,6aS)-N-(6-(2-methoxyphenyl)-4-(trifluoromethyl)pyridazin-3-yl)-2-((tetrahydro-2H-pyran-4-yl)methyl)octahydro-cyclopenta[c]pyrrol-5-amine] | 3 | 54 |
| FC(F)(F)c1cc(-c2ccccc2)nnc1N[C@H]1C[C@@H]2CN(CC3CCOCC3)C[C@@H]2C1 [Example 65, (3aR,5s,6aS)-N-(6-phenyl-4-(trifluoromethyl)pyridazin-3-yl)-2-((tetrahydro-2H-pyran-4-yl)methyl)octahydro-cyclopenta[c]pyrrol-5-amine] | 3 | 69 |
| Cn1cc(-c2cc(C(F)(F)F)c(N[C@H]3C[C@@H]4CN(CC5CCOCC5)C[C@@H]4C3)nn2)cn1 [Example 66, (3aR,5s,6aS)-N-(6-(1-methyl-1H-pyrazol-4-yl)-4-(trifluoro-methyl)pyridazin-3-yl)-2-((tetrahydro-2H-pyran-4-yl)methyl)octahydro-cyclopenta[c]pyrrol-5-amine] | 3 | 119 |
| Cc1ccncc1-c1cc(C(F)(F)F)c(N[C@H]2C[C@@H]3CN(CC4CCOCC4)C[C@@H]3C2)nn1 [Example 67, (3aR,5s,6aS)-N-(6-(4-methylpyridin-3-yl)-4-(trifluoromethyl)pyridazin-3-yl)-2-((tetrahydro-2H-pyran-4-yl)methyl)octahydro-cyclopenta[c]pyrrol-5-amine] | 3 | 133 |
| FC(F)(F)c1cc(-c2cccnc2)nnc1N[C@H]1C[C@@H]2CN(CC3CCOCC3)C[C@@H]2C1 [Example 68, (3aR,5s,6aS)-N-(6-(pyridin-3-yl)-4-(trifluoro-methyl)pyridazin-3-yl)-2-((tetrahydro-2H-pyran-4-yl)methyl)octahydro-cyclopenta[c]pyrrol-5-amine] | 3 | 161 |
| Fc1ccc(F)c(-c2cc(C(F)(F)F)c(N[C@H]3C[C@@H]4CN(C[C@@H]5COCCO5)C[C@@H]4C3)nn2)c1 [Example 69, (3aR,5s,6aS)-2-(((R)-1,4-dioxan-2-yl)methyl)-N-(6-(2,5-difluorophenyl)-4-(trifluoromethyl)pyridazin-3-yl)octahydro-cyclopenta[c]pyrrol-5-amine] | 3 | 242 |
| Fc1ccc(F)c(-c2cc(C(F)(F)F)c(N[C@H]3C[C@@H]4CN(C[C@H]5COCCO5)C[C@@H]4C3)nn2)c1 [Example 70, (3aR,5s,6aS)-2-(((S)-1,4-dioxan-2-yl)methyl)-N-(6-(2,5-difluorophenyl)-4-(trifluoromethyl)pyridazin-3-yl)octahydro-cyclopenta[c]pyrrol-5-amine] | 3 | 142 |
| Cc1ccc(C)c(-c2cc(C(F)(F)F)c(N[C@H]3C[C@@H]4CN(C[C@@H]5COCCO5)C[C@@H]4C3)nn2)c1 [Example 71, (3aR,5s,6aS)-2-(((R)-1,4-dioxan-2-yl)methyl)-N-(6-(2,5-dimethylphenyl)-4-(trifluoromethyl)pyridazin-3-yl)octahydro-cyclopenta[c]pyrrol-5-amine] | 3 | 183 |
| Cc1ccc(C)c(-c2cc(C(F)(F)F)c(N[C@H]3C[C@@H]4CN(C[C@H]5COCCO5)C[C@@H]4C3)nn2)c1 [Example 72, (3aR,5s,6aS)-2-(((S)-1,4-dioxan-2-yl)methyl)-N-(6-(2,5-dimethylphenyl)-4-(trifluoromethyl)pyridazin-3-yl)octahydro-cyclopenta[c]pyrrol-5-amine] | 3 | 52.9 |
| CCOc1ccc(F)cc1-c1cc(C(F)(F)F)c(N[C@H]2C[C@@H]3CN(CC4CCOCC4)C[C@@H]3C2)nn1 [Example 73, (3aR,5s,6aS)-N-(6-(2-ethoxy-5-fluorophenyl)-4-(trifluoromethyl)pyridazin-3-yl)-2-((tetrahydro-2H-pyran-4-yl)methyl)octahydro-cyclopenta[c]pyrrol-5-amine] | 3 | 201 |
| Cc1cc(F)ccc1-c1cc(C(F)(F)F)c(N[C@H]2C[C@@H]3CN(CC4CCOCC4)C[C@@H]3C2)nn1 [Example 74, (3aR,5s,6aS)-N-(6-(4-fluoro-2-methylphenyl)-4-(trifluoromethyl)pyridazin-3-yl)-2-((tetrahydro-2H-pyran-4-yl)methyl)octahydro-cyclopenta[c]pyrrol-5-amine] | 3 | 38.9 |
| Cn1ncc2cc(-c3cc(C(F)(F)F)c(N[C@H]4C[C@@H]5CN(CC6CCOCC6)C[C@@H]5C4)nn3)ccc21 [Example 75, (3aR,5s,6aS)-N-(6-(1-methyl-1H-indazol-5-yl)-4-(trifluoromethyl)pyridazin-3-yl)-2-((tetrahydro-2H-pyran-4-yl)methyl)octahydro-cyclopenta[c]pyrrol-5-amine] | 3 | 45.1 |
| Cn1cnc2ccc(-c3cc(C(F)(F)F)c(N[C@H]4C[C@@H]5CN(CC6CCOCC6)C[C@@H]5C4)nn3)cc21 [Example 76, (3aR,5s,6aS)-N-(6-(1-methyl-1H-benzo[d]imidazol-6-yl)-4-(trifluoromethyl)pyridazin-3-yl)-2-((tetrahydro-2H-pyran-4-yl)methyl)octahydro-cyclopenta[c]pyrrol-5-amine] | 3 | 93.8 |
| COc1ccc(-c2cc(C(F)(F)F)c(N[C@H]3C[C@@H]4CN(CC5CCOCC5)C[C@@H]4C3)nn2)c(C)c1 [Example 77, (3aR,5s,6aS)-N-(6-(4-methoxy-2-methylphenyl)-4-(trifluoromethyl)pyridazin-3-yl)-2-((tetrahydro-2H-pyran-4-yl)methyl)octahydro-cyclopenta[c]pyrrol-5-amine] | 3 | 38 |
| COc1cc(F)c(-c2cc(C(F)(F)F)c(N[C@H]3C[C@@H]4CN(CC5CCOCC5)C[C@@H]4C3)nn2)cc1F [Example 78, (3aR,5s,6aS)-N-(6-(2,5-difluoro-4-methoxyphenyl)-4-(trifluoromethyl)pyridazin-3-yl)-2-((tetrahydro-2H-pyran-4-yl)methyl)octahydro-cyclopenta[c]pyrrol-5-amine] | 3 | 172 |
| Cc1ccc(-c2cc(C(F)(F)F)c(N[C@H]3C[C@@H]4CN(CC5CCOCC5)C[C@@H]4C3)nn2)c(F)c1 [Example 79, (3aR,5s,6aS)-N-(6-(2-fluoro-4-methylphenyl)-4-(trifluoromethyl)pyridazin-3-yl)-2-((tetrahydro-2H-pyran-4-yl)methyl)octahydro-cyclopenta[c]pyrrol-5-amine] | 3 | 349 |
| COc1c(F)cc(-c2cc(C(F)(F)F)c(N[C@H]3C[C@@H]4CN(CC5CCOCC5)C[C@@H]4C3)nn2)cc1F [Example 80, (3aR,5s,6aS)-N-(6-(3,5-difluoro-4-methoxyphenyl)-4-(trifluoromethyl)pyridazin-3-yl)-2-((tetrahydro-2H-pyran-4-yl)methyl)octahydro-cyclopenta[c]pyrrol-5-amine] | 3 | 170 |
| Fc1cccc(-c2cc(C(F)(F)F)c(N[C@H]3C[C@@H]4CN(CC5CCOCC5)C[C@@H]4C3)nn2)c1F [Example 81, (3aR,5s,6aS)-N-(6-(2,3-difluorophenyl)-4-(trifluoro-methyl)pyridazin-3-yl)-2-((tetrahydro-2H-pyran-4-yl)methyl)octahydro-cyclopenta[c]pyrrol-5-amine] | 3 | 178 |
| Fc1ccc(-c2cc(C(F)(F)F)c(N[C@H]3C[C@@H]4CN(CC5CCOCC5)C[C@@H]4C3)nn2)c(F)c1 [Example 82, (3aR,5s,6aS)-N-(6-(2,4-difluorophenyl)-4-(trifluoro-methyl)pyridazin-3-yl)-2-((tetrahydro-2H-pyran-4-yl)methyl)octahydro-cyclopenta[c]pyrrol-5-amine] | 3 | 286 |
| Fc1cc(OC(F)F)ccc1-c1cc(C(F)(F)F)c(N[C@H]2C[C@@H]3CN(CC4CCOCC4)C[C@@H]3C2)nn1 [Example 83, (3aR,5s,6aS)-N-(6-(2-fluoro-4-(difluoromethoxy)phenyl)-4-(trifluoromethyl)pyridazin-3-yl)-2-((tetrahydro-2H-pyran-4-yl)methyl)octahydro-cyclopenta[c]pyrrol-5-amine] | 3 | 408 |
| CCOc1ccc(-c2cc(C(F)(F)F)c(N[C@H]3C[C@@H]4CN(CC5CCOCC5)C[C@@H]4C3)nn2)c(C)c1 [Example 84, (3aR,5s,6aS)-N-(6-(4-ethoxy-2-methylphenyl)-4-(trifluoromethyl)pyridazin-3-yl)-2-((tetrahydro-2H-pyran-4-yl)methyl)octahydro-cyclopenta[c]pyrrol-5-amine] | 3 | 73.7 |
